According to ChEMBL document CHEMBL5370681, “Lipid Tales: Optimizing Arylomycin Membrane Anchors” (ACS Med Chem Lett, 2023):
Values after ≈ are worked out from the molar mass of the structure shown.

Legend:
[1] = biological target: Signal peptidase I (Escherichia coli K-12) (UniProt P00803); assay: Inhibition of LepB in Escherichia coli IMP assessed as antibacterial activity by measuring reduction in bacterial growth incubated for 18 hrs by two-fold serial dilution method
[2] = tested on: Escherichia coli; assay: Antibacterial activity against Escherichia coli 25922 incubated for 18 hrs by two-fold serial dilution method; format: functional
[3] = tested on: Escherichia coli; assay: Antibacterial activity against Escherichia coli 25922 incubated for 18 hrs in presence of 50% mouse serum by two-fold serial dilution method; format: functional
[4] = Unbound fraction in human plasma at 5 uM measured after 24 hrs by LC-MS/MS analysis; format: ADME, cell-free

Signal peptidase I (Escherichia coli K-12), sequence (P00803 whole entry): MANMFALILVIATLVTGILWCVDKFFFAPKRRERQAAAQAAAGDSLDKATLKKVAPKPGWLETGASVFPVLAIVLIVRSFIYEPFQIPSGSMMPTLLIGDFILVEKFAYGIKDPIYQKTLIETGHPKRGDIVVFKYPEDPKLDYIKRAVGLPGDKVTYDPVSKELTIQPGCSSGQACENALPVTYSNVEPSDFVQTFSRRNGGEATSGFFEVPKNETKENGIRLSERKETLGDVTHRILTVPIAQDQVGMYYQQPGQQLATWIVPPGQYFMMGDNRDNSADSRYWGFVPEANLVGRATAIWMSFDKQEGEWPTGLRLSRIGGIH

| Compound | MIC [1] | MIC [2] | MIC [3] | fraction unbound at 24 h, 5 µM [4] |
| --- | --- | --- | --- | --- |
| CC(C)CCc1ccc(-c2ccc(C(=O)N[C@@H](CCN)C(=O)N(C)[C@@H]3C(=O)N[C@@H](C)C(=O)N[C@H](C(=O)NCC#N)Cc4ccc(OCCN)c(c4)-c4cc3ccc4OCCN)cc2)cc1 | 0.015 µg/mL (≈ 0.0169 µM) | 0.18 µg/mL (≈ 0.203 µM) | 3.8 µg/mL |  |
| C[C@@H]1NC(=O)[C@@H](N(C)C(=O)[C@H](CCN)NC(=O)c2ccc(-c3ccc(C(C)(C)C)cc3)nc2N)c2ccc(OCCN)c(c2)-c2cc(ccc2OCCN)C[C@@H](C(=O)NCC#N)NC1=O | 0.011 µg/mL (≈ 0.0124 µM) | 0.45 µg/mL (≈ 0.506 µM) | 0.89 µg/mL | 0.063 |
| CCCCCCCCCCCCC(=O)N[C@@H](CCN)C(=O)N(C)[C@@H]1C(=O)N[C@@H](C)C(=O)N[C@H](C(=O)NCC#N)Cc2ccc(OCCN)c(c2)-c2cc1ccc2OCCN | 0.007 µg/mL (≈ 0.00839 µM) | 0.23 µg/mL (≈ 0.276 µM) | 3.8 µg/mL | 0.01 |
| Cc1cc(-c2ccc(C(C)(C)C)cc2)ccc1C(=O)N[C@@H](CCN)C(=O)N(C)[C@@H]1C(=O)N[C@@H](C)C(=O)N[C@H](C(=O)NCC#N)Cc2ccc(OCCN)c(c2)-c2cc1ccc2OCCN | 0.011 µg/mL (≈ 0.0124 µM) | 0.12 µg/mL (≈ 0.135 µM) | 0.44 µg/mL | 0.001 |
| Cc1cc(-c2ccc(-c3ccccc3)cc2)ccc1C(=O)N[C@@H](CCN)C(=O)N(C)[C@@H]1C(=O)N[C@@H](C)C(=O)N[C@H](C(=O)NCC#N)Cc2ccc(OCCN)c(c2)-c2cc1ccc2OCCN | 0.043 µg/mL (≈ 0.0474 µM) | 0.22 µg/mL (≈ 0.242 µM) | 1.5 µg/mL | 0.017 |
| CCCCCCCCC(=O)N[C@@H](CCN)C(=O)N(C)[C@@H]1C(=O)N[C@@H](C)C(=O)N[C@H](C(=O)NCC#N)Cc2ccc(OCCN)c(c2)-c2cc1ccc2OCCN | 0.12 µg/mL (≈ 0.154 µM) | 23 µg/mL (≈ 29.6 µM) | 61 µg/mL |  |
| C[C@@H]1NC(=O)[C@@H](N(C)C(=O)[C@H](CCN)NC(=O)c2cnc(-c3ccc(C(C)(C)C)cc3)cc2N)c2ccc(OCCN)c(c2)-c2cc(ccc2OCCN)C[C@@H](C(=O)NCC#N)NC1=O | 0.011 µg/mL (≈ 0.0124 µM) | 0.22 µg/mL (≈ 0.247 µM) | 0.34 µg/mL |  |
| Cc1cc(-c2ccccc2)ccc1C(=O)N[C@@H](CCN)C(=O)N(C)[C@@H]1C(=O)N[C@@H](C)C(=O)N[C@H](C(=O)NCC#N)Cc2ccc(OCCN)c(c2)-c2cc1ccc2OCCN | 0.023 µg/mL (≈ 0.0276 µM) | 3 µg/mL (≈ 3.61 µM) | 2 µg/mL | 0.34 |
| Cc1nc(-c2ccc(C(C)(C)C)cc2)nc(C)c1C(=O)N[C@@H](CCN)C(=O)N(C)[C@@H]1C(=O)N[C@@H](C)C(=O)N[C@H](C(=O)NCC#N)Cc2ccc(OCCN)c(c2)-c2cc1ccc2OCCN | 0.003 µg/mL (≈ 0.00332 µM) | 0.13 µg/mL (≈ 0.144 µM) | 0.17 µg/mL | 0.22 |
| Cc1nc(-c2ccc(C(C)(C)C)cc2)ncc1C(=O)N[C@@H](CCN)C(=O)N(C)[C@@H]1C(=O)N[C@@H](C)C(=O)N[C@H](C(=O)NCC#N)Cc2ccc(OCCN)c(c2)-c2cc1ccc2OCCN | 0.004 µg/mL (≈ 0.00449 µM) | 0.14 µg/mL (≈ 0.157 µM) | 0.2 µg/mL | 0.23 |
| Cc1cc(-c2ccc(C(C)(C)C)cc2)ncc1C(=O)N[C@@H](CCN)C(=O)N(C)[C@@H]1C(=O)N[C@@H](C)C(=O)N[C@H](C(=O)NCC#N)Cc2ccc(OCCN)c(c2)-c2cc1ccc2OCCN | 0.004 µg/mL (≈ 0.0045 µM) | 0.12 µg/mL (≈ 0.135 µM) | 0.24 µg/mL | 0.11 |
| CNc1nc(-c2ccc(C(C)(C)C)cc2)ncc1C(=O)N[C@@H](CCN)C(=O)N(C)[C@@H]1C(=O)N[C@@H](C)C(=O)N[C@H](C(=O)NCC#N)Cc2ccc(OCCN)c(c2)-c2cc1ccc2OCCN | 0.007 µg/mL (≈ 0.00773 µM) | 0.34 µg/mL (≈ 0.376 µM) | 0.68 µg/mL |  |
| CCCCCCCCCC(=O)N[C@@H](CCN)C(=O)N(C)[C@@H]1C(=O)N[C@@H](C)C(=O)N[C@H](C(=O)NCC#N)Cc2ccc(OCCN)c(c2)-c2cc1ccc2OCCN | 0.1 µg/mL (≈ 0.126 µM) | 15 µg/mL (≈ 18.9 µM) | 51 µg/mL |  |
| Cc1cc(-c2ccc(C(C)C)cc2)ccc1C(=O)N[C@@H](CCN)C(=O)N(C)[C@@H]1C(=O)N[C@@H](C)C(=O)N[C@H](C(=O)NCC#N)Cc2ccc(OCCN)c(c2)-c2cc1ccc2OCCN | 0.007 µg/mL (≈ 0.00801 µM) | 0.15 µg/mL (≈ 0.172 µM) | 0.96 µg/mL | 0.086 |
| Cc1cc(-c2ccc(C(C)(C)C)cc2)cc(C)c1C(=O)N[C@@H](CCN)C(=O)N(C)[C@@H]1C(=O)N[C@@H](C)C(=O)N[C@H](C(=O)NCC#N)Cc2ccc(OCCN)c(c2)-c2cc1ccc2OCCN | 0.005 µg/mL (≈ 0.00554 µM) | 0.17 µg/mL (≈ 0.188 µM) | 0.34 µg/mL |  |
| CCCCc1ccc(-c2ccc(C(=O)N[C@@H](CCN)C(=O)N(C)[C@@H]3C(=O)N[C@@H](C)C(=O)N[C@H](C(=O)NCC#N)Cc4ccc(OCCN)c(c4)-c4cc3ccc4OCCN)cc2)cc1 | 0.016 µg/mL (≈ 0.0183 µM) | 0.2 µg/mL (≈ 0.229 µM) | 2.1 µg/mL |  |
| Cc1cc(-c2ccc(Cl)cc2)ccc1C(=O)N[C@@H](CCN)C(=O)N(C)[C@@H]1C(=O)N[C@@H](C)C(=O)N[C@H](C(=O)NCC#N)Cc2ccc(OCCN)c(c2)-c2cc1ccc2OCCN | 0.01 µg/mL (≈ 0.0115 µM) | 0.83 µg/mL (≈ 0.958 µM) | 2.3 µg/mL | 0.13 |
| Cc1nc(-c2ccc(C(C)(C)C)cc2)cc(N)c1C(=O)N[C@@H](CCN)C(=O)N(C)[C@@H]1C(=O)N[C@@H](C)C(=O)N[C@H](C(=O)NCC#N)Cc2ccc(OCCN)c(c2)-c2cc1ccc2OCCN | 0.007 µg/mL (≈ 0.00774 µM) | 0.12 µg/mL (≈ 0.133 µM) | 0.08 µg/mL |  |
| Cc1cc(-c2ccc(C(C)(C)C)cc2)nc(C)c1C(=O)N[C@@H](CCN)C(=O)N(C)[C@@H]1C(=O)N[C@@H](C)C(=O)N[C@H](C(=O)NCC#N)Cc2ccc(OCCN)c(c2)-c2cc1ccc2OCCN | 0.004 µg/mL (≈ 0.00443 µM) | 0.18 µg/mL (≈ 0.199 µM) | 0.12 µg/mL | 0.083 |
| Cc1nc(-c2ccc(C(C)(C)C)cc2)nc(N)c1C(=O)N[C@@H](CCN)C(=O)N(C)[C@@H]1C(=O)N[C@@H](C)C(=O)N[C@H](C(=O)NCC#N)Cc2ccc(OCCN)c(c2)-c2cc1ccc2OCCN | 0.005 µg/mL (≈ 0.00552 µM) | 0.11 µg/mL (≈ 0.122 µM) | 0.11 µg/mL | 0.12 |
| Cc1nc(-c2ccc(C(C)(C)C)cc2)c(N)cc1C(=O)N[C@@H](CCN)C(=O)N(C)[C@@H]1C(=O)N[C@@H](C)C(=O)N[C@H](C(=O)NCC#N)Cc2ccc(OCCN)c(c2)-c2cc1ccc2OCCN | 0.021 µg/mL (≈ 0.0232 µM) | 0.34 µg/mL (≈ 0.376 µM) | 0.12 µg/mL |  |
| Cc1cc(-c2ccc(CC(C)C)cc2)ccc1C(=O)N[C@@H](CCN)C(=O)N(C)[C@@H]1C(=O)N[C@@H](C)C(=O)N[C@H](C(=O)NCC#N)Cc2ccc(OCCN)c(c2)-c2cc1ccc2OCCN | 0.006 µg/mL (≈ 0.00676 µM) | 0.08 µg/mL (≈ 0.0901 µM) | 0.83 µg/mL | 0.001 |
| Cc1cc(-c2ccc(C(F)(F)F)cc2)ccc1C(=O)N[C@@H](CCN)C(=O)N(C)[C@@H]1C(=O)N[C@@H](C)C(=O)N[C@H](C(=O)NCC#N)Cc2ccc(OCCN)c(c2)-c2cc1ccc2OCCN | 0.014 µg/mL (≈ 0.0156 µM) | 0.41 µg/mL (≈ 0.456 µM) | 1.4 µg/mL | 0.078 |
| Cc1nc(-c2ccc(C(C)(C)C)cc2)ccc1C(=O)N[C@@H](CCN)C(=O)N(C)[C@@H]1C(=O)N[C@@H](C)C(=O)N[C@H](C(=O)NCC#N)Cc2ccc(OCCN)c(c2)-c2cc1ccc2OCCN | 0.004 µg/mL (≈ 0.0045 µM) | 0.12 µg/mL (≈ 0.135 µM) | 0.12 µg/mL |  |
| CCCCCCCC(=O)N[C@@H](CCN)C(=O)N(C)[C@@H]1C(=O)N[C@@H](C)C(=O)N[C@H](C(=O)NCC#N)Cc2ccc(OCCN)c(c2)-c2cc1ccc2OCCN | 0.35 µg/mL (≈ 0.458 µM) | 31 µg/mL (≈ 40.6 µM) | 60 µg/mL | 0.59 |
| CCCCCCCCCCC(=O)N[C@@H](CCN)C(=O)N(C)[C@@H]1C(=O)N[C@@H](C)C(=O)N[C@H](C(=O)NCC#N)Cc2ccc(OCCN)c(c2)-c2cc1ccc2OCCN | 0.023 µg/mL (≈ 0.0285 µM) | 3.8 µg/mL (≈ 4.71 µM) | 15 µg/mL | 0.09 |
| CCCCCCCCCCCCCC(=O)N[C@@H](CCN)C(=O)N(C)[C@@H]1C(=O)N[C@@H](C)C(=O)N[C@H](C(=O)NCC#N)Cc2ccc(OCCN)c(c2)-c2cc1ccc2OCCN | 0.014 µg/mL (≈ 0.0165 µM) | 0.24 µg/mL (≈ 0.283 µM) | 3.8 µg/mL |  |
| CCCCCCCCCCCC(=O)N[C@@H](CCN)C(=O)N(C)[C@@H]1C(=O)N[C@@H](C)C(=O)N[C@H](C(=O)NCC#N)Cc2ccc(OCCN)c(c2)-c2cc1ccc2OCCN | 0.007 µg/mL (≈ 0.00854 µM) | 0.98 µg/mL (≈ 1.2 µM) | 7.5 µg/mL | 0.03 |
| CCc1ccc(-c2ccc(C(=O)N[C@@H](CCN)C(=O)N(C)[C@@H]3C(=O)N[C@@H](C)C(=O)N[C@H](C(=O)NCC#N)Cc4ccc(OCCN)c(c4)-c4cc3ccc4OCCN)c(C)c2)cc1 | 0.008 µg/mL (≈ 0.0093 µM) | 0.31 µg/mL (≈ 0.36 µM) | 0.75 µg/mL | 0.053 |
| C[C@@H]1NC(=O)[C@@H](N(C)C(=O)[C@H](CCN)NC(=O)c2ccc(-c3ccc(Cl)cc3)cc2)c2ccc(OCCN)c(c2)-c2cc(ccc2OCCN)C[C@@H](C(=O)NCC#N)NC1=O | 0.022 µg/mL (≈ 0.0258 µM) | 1.5 µg/mL (≈ 1.76 µM) | 3.8 µg/mL | 0.2 |
